These molecules were tested against T1, mGluR5 receptor (Sus scrofa, UniProt I3LUI7) (assay: [3H]-MPEP mGluR5 receptor binding assay (pig brain homogenate)). Settings: 10 μM compound, 5 nM [3H]-MPEP.
T1 construct: 450 μg of protein from brain homogenate with 5 nM ^3[H]-MPEP; from tissue; host or cells: pig brain halves without medulla, cerebellum and pons
T1 sequence (I3LUI7 19-1212): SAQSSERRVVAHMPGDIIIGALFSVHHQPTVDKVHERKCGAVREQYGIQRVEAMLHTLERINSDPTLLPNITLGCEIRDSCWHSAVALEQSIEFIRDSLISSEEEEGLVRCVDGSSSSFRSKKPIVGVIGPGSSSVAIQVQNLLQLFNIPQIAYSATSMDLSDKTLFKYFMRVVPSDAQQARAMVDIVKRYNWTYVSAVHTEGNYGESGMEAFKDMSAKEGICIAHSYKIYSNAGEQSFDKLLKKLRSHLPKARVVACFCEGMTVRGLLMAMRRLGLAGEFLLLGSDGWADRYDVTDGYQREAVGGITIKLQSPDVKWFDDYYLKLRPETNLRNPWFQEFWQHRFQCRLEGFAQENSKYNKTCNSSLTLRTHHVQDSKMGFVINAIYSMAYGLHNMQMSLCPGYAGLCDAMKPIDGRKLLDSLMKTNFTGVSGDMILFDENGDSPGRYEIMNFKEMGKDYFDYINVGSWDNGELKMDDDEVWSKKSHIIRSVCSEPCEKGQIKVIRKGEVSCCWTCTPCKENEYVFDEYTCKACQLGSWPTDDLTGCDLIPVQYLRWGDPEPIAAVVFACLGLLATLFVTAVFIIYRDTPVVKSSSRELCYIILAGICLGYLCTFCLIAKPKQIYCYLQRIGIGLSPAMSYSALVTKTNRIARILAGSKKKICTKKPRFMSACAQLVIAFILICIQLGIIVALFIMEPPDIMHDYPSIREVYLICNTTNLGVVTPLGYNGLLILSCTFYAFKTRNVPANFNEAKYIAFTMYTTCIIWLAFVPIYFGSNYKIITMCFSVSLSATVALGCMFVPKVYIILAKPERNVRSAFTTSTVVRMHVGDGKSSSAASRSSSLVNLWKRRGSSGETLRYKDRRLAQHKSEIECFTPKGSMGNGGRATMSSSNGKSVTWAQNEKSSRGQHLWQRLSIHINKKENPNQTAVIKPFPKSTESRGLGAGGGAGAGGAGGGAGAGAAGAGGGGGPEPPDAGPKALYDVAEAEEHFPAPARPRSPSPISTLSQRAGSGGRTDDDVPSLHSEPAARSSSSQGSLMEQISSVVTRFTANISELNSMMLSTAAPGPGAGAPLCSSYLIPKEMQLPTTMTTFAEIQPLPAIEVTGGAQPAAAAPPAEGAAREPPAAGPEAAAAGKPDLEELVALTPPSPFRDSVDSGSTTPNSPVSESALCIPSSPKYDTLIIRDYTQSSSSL
In short: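 Compounds at 10 μM competed with 5 nM [3H]-MPEP for binding to pig brain membranes (450 μg protein) for 60 min at room temperature in pH 8.0 Hepes buffer. Bound radioactivity was collected on glass-fibre filters and read by β-counting, with 10 μM unlabelled MPEP giving non-specific binding.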
With `COc1ccc(S(=O)(=O)N(Cc2cc(-c3ccc4ncnc(NC5CC5)c4c3)ccn2)C2CC2)cc1` [Example 806, N-cyclopropyl-N-((4-(4-(cyclopropylamino)quinazolin-6-yl)pyridin-2-yl)methyl)-4-methoxybenzole sulfonamide] the “% Inhibition of mGluR5 Receptor (pig) [^3H]-MPEP Bond at 10 μM” value (from here on “% Inhibition of mGluR5 Receptor (pig)”) was 89%.
In the case of `CC(C)(C)Nc1ncnc2ccc(-c3ccc(F)c(CN(C(=O)c4ccco4)C4CC4)c3)cc12` [Example 807, N-(5-(4-(tert-butylamino)quinazolin-6-yl)-2-fluorobenzyl)-N-cyclopropyl furan-2-carboxamide], the “% Inhibition of mGluR5 Receptor (pig)” value is reported as 90%.
For `CC(C)(C)Nc1ncnc2ccc(-c3ccc(F)c(CN(C(=O)C4CCCCC4)C4CC4)c3)cc12` [Example 809, N-(5-(4-(tert-butylamino)quinazolin-6-yl)-2-fluorobenzyl)-N-cyclopropyl cyclohexane carboxamide], the “% Inhibition of mGluR5 Receptor (pig)” value was 48%.
In the case of `CC(C)(C)Nc1ncnc2ccc(-c3ccc(F)c(CN(C4CC4)S(=O)(=O)c4cccs4)c3)cc12` [Example 810, N-(5-(4-(tert-butylamino)quinazolin-6-yl)-2-fluorobenzyl)-N-cyclopropyl thiophene-2-sulfonamide], the “% Inhibition of mGluR5 Receptor (pig)” value is reported as 45%.
In the case of `CC(C)(C)Nc1ncnc2ccc(-c3ccc(F)c(CN(C(=O)c4cccs4)C4CC4)c3)cc12` [Example 819, N-(5-(4-(tert-butylamino)quinazolin-6-yl)-2-fluorobenzyl)-N-cyclopropyl thiophene-2-carboxamide], the “% Inhibition of mGluR5 Receptor (pig)” value is reported as 88%.
With `CC(C)(C)Nc1ncnc2ccc(-c3ccc(F)c(CN(C(=O)c4cc(Cl)cc(Cl)c4)C4CC4)c3)cc12` [Example 820, N-(5-(4-(tert-butylamino)quinazolin-6-yl)-2-fluorobenzyl)-3,5-dichloro-N-cyclopropyl benzamide] the “% Inhibition of mGluR5 Receptor (pig)” value was 48%.
In the case of `CC(C)(C)Nc1ncnc2ccc(-c3ccc(F)c(CN(C(=O)CCc4ccccc4)C4CC4)c3)cc12` [Example 821, N-(5-(4-(tert-butylamino)quinazolin-6-yl)-2-fluorobenzyl)-N-cyclopropyl-3-phenyl propanamide], the “% Inhibition of mGluR5 Receptor (pig)” value is reported as 84%.
For `CC(C)S(=O)(=O)N(Cc1cc(-c2ccc3ncnc(NC(C)(C)C)c3c2)ccc1F)C1CC1` [Example 822, N-(5-(4-(tert-butylamino)quinazolin-6-yl)-2-fluorobenzyl)-N-cyclopropyl propane-2-sulfonamide], the “% Inhibition of mGluR5 Receptor (pig)” value was 86%.
In the case of `CC(C)(C)Nc1ncnc2ccc(-c3ccc(F)c(CN(C(=O)c4ccccn4)C4CC4)c3)cc12` [Example 826, N-(5-(4-(tert-butylamino)quinazolin-6-yl)-2-fluorobenzyl)-N-cyclopropyl picolinamide], the “% Inhibition of mGluR5 Receptor (pig)” value is reported as 98%.
`CC(C)(C)Nc1ncnc2ccc(-c3ccc(F)c(CN(C4CC4)S(C)(=O)=O)c3)cc12` [Example 827, N-(5-(4-(tert-butylamino)quinazolin-6-yl)-2-fluorobenzyl)-N-cyclopropyl methane sulfonamide] was tested, and the “% Inhibition of mGluR5 Receptor (pig)” value was 87%.
In the case of `CC(C)(C)Nc1ncnc2ccc(-c3ccc(F)c(CN(C(=O)c4ccncc4)C4CC4)c3)cc12` [Example 832, N-(5-(4-(tert-butylamino)quinazolin-6-yl)-2-fluorobenzyl)-N-cyclopropyl isonicotinamide], the “% Inhibition of mGluR5 Receptor (pig)” value is reported as 96%.
With `CC(C)(C)Nc1ncnc2ccc(-c3ccc(F)c(CN(C4CC4)S(=O)(=O)Cc4ccccc4)c3)cc12` [Example 833, N-(5-(4-(tert-butylamino)quinazolin-6-yl)-2-fluorobenzyl)-N-cyclopropyl-1-phenyl methane sulfonamide] the “% Inhibition of mGluR5 Receptor (pig)” value was 43%.
In the case of `CC(C)(C)Nc1ncnc2ccc(-c3ccc(F)c(CN(C(=O)c4ccno4)C4CC4)c3)cc12` [Example 834, N-(5-(4-(tert-butylamino)quinazolin-6-yl)-2-fluorobenzyl)-N-cyclopropyl isoxazole-5-carboxamide], the “% Inhibition of mGluR5 Receptor (pig)” value is reported as 42%.
With `CC(C)(C)Nc1ncnc2ccc(-c3ccc(F)c(CN(C(=O)c4ccccc4)C4CC4)c3)cc12` [Example 837, N-(5-(4-(tert-butylamino)quinazolin-6-yl)-2-fluorobenzyl)-N-cyclopropyl benzamide] the “% Inhibition of mGluR5 Receptor (pig)” value was 86%.

Same assay, conditions: 10 μM compound, 5 nM [3H]-MPEP, read-out: % Inhibition of mGluR5 Receptor (pig) [^3H]-MPEP Bond at 10 μM
For `O=C(c1c(F)c(F)c(F)c(F)c1F)N(Cc1cc(-c2ccc3ncnc(NC4CC4)c3c2)ccn1)C1CC1` [Example 803, N-cyclopropyl-N-((4-(4-(cyclopropylamino)quinazolin-6-yl)pyridin-2-yl)methyl)-2,3,4,5,6-pentafluorobenzamide], the inhibition at 10 µM was 93%.
Work on `CC(C)S(=O)(=O)N(Cc1cc(-c2ccc3ncnc(NC4CC4)c3c2)ccn1)C1CC1` [Example 804, N-cyclopropyl-N-((4-(4-(cyclopropylamino)quinazolin-6-yl)pyridin-2-yl)methyl)propane-2-sulfonamide] yielded an inhibition at 10 µM of 83%.
In the case of `O=S(=O)(Cc1ccccc1)N(Cc1cc(-c2ccc3ncnc(NC4CC4)c3c2)ccn1)C1CC1` [Example 805, N-cyclopropyl-N-((4-(4-(cyclopropylamino)quinazolin-6-yl)pyridin-2-yl)methyl)-1-phenylmethane sulfonamide], the inhibition at 10 µM is reported as 92%.
In the case of `CC(C)(C)Nc1ncnc2ccc(-c3ccc(F)c(CN(C(=O)c4cccc(C(F)(F)F)c4)C4CC4)c3)cc12` [Example 808, N-(5-(4-(tert-butylamino)quinazolin-6-yl)-2-fluorobenzyl)-N-cyclopropyl-3-(trifluoromethyl)benzamide], the inhibition at 10 µM is reported as 81%.
`O=C(c1cccs1)N(Cc1cc(-c2ccc3ncnc(NC4CC4)c3c2)ccn1)C1CC1` [Example 811, N-cyclopropyl-N-((4-(4-(cyclopropylamino)quinazolin-6-yl)pyridin-2-yl)methyl)thiophene-2-carboxamide] gave an inhibition at 10 µM of 71%.
`O=S(=O)(c1cccc2cccnc12)N(Cc1cc(-c2ccc3ncnc(NC4CC4)c3c2)ccn1)C1CC1` [Example 812, N-cyclopropyl-N-((4-(4-(cyclopropylamino)quinazolin-6-yl)pyridin-2-yl)methyl)quinoline-8-sulfonamide] was tested, and the inhibition at 10 µM was 73%.
Work on `O=C(c1ccccc1)N(Cc1cc(-c2ccc3ncnc(NC4CC4)c3c2)ccn1)C1CC1` [Example 813, N-cyclopropyl-N-((4-(4-(cyclopropylamino)quinazolin-6-yl)pyridin-2-yl)methyl)benzamide] yielded an inhibition at 10 µM of 73%.
For `CC(C)(C)Nc1ncnc2ccc(-c3ccc(F)c(CN(C(=O)c4ccccc4C(F)(F)F)C4CC4)c3)cc12` [Example 814, N-(5-(4-(tert-butylamino)quinazolin-6-yl)-2-fluorobenzyl)-N-cyclopropyl-2-(trifluoromethyl)benzamide], the inhibition at 10 µM was 89%.
In the case of `CC(C)(C)Nc1ncnc2ccc(-c3ccc(F)c(CN(C(=O)Cc4ccccc4)C4CC4)c3)cc12` [Example 815, N-(5-(4-(tert-butylamino)quinazolin-6-yl)-2-fluorobenzyl)-N-cyclopropyl-2-phenylacetamide], the inhibition at 10 µM is reported as 87%.
Work on `O=C(c1ccc(F)cc1F)N(Cc1cc(-c2ccc3ncnc(NC4CC4)c3c2)ccn1)C1CC1` [Example 817, N-cyclopropyl-N-((4-(4-(cyclopropylamino)quinazolin-6-yl)pyridin-2-yl)methyl)-2,4-difluorobenzamide] yielded an inhibition at 10 µM of 71%.
`CC(C)S(=O)(=O)N(Cc1cccc(-c2ccc3ncnc(NCCc4ccccc4)c3c2)c1)C1CC1` [Example 818, N-cyclopropyl-N-(3-(4-(phenethylamino)quinazolin-6-yl)benzyl)propane-2-sulfonamide] showed an inhibition at 10 µM of 34%.
With `O=C(c1ccncc1)N(Cc1cc(-c2ccc3ncnc(NC4CC4)c3c2)ccn1)C1CC1` [Example 823, N-cyclopropyl-N-((4-(4-(cyclopropylamino)quinazolin-6-yl)pyridin-2-yl)methyl)isonicotinamide] the inhibition at 10 µM was 62%.
`CC(C)S(=O)(=O)N(Cc1cccc(-c2cc(F)c3ncnc(NC4CC4)c3c2)c1)C1CC1` [Example 824, N-cyclopropyl-N-(3-(4-(cyclopropylamino)-8-fluoroquinazolin-6-yl)benzyl)propane-2-sulfonamide] showed an inhibition at 10 µM of 71%.
Molecule `Cc1nc(C(=O)N(Cc2cc(-c3ccc4ncnc(NC(C)(C)C)c4c3)ccc2F)C2CC2)cs1` [Example 825, N-(5-(4-(tert-butylamino)quinazolin-6-yl)-2-fluorobenzyl)-N-cyclopropyl-2-methylthiazole-4-carboxamide] has an inhibition at 10 µM of 97%.
Molecule `CC(C)(C)C(=O)N(Cc1cc(-c2ccc3ncnc(NC4CC4)c3c2)ccn1)C1CC1` [Example 828, N-cyclopropyl-N-((4-(4-(cyclopropylamino)quinazolin-6-yl)pyridin-2-yl)methyl)pivalamide] has an inhibition at 10 µM of 74%.
Molecule `CCCCC(=O)N(Cc1cc(-c2ccc3ncnc(NC4CC4)c3c2)ccn1)C1CC1` [Example 829, N-cyclopropyl-N-((4-(4-(cyclopropylamino)quinazolin-6-yl)pyridin-2-yl)methyl)pentanamide] has an inhibition at 10 µM of 45%.
In the case of `Cc1nc(C(=O)N(Cc2cccc(-c3cc(F)c4ncnc(NC5CC5)c4c3)c2)C2CC2)cs1` [Example 830, N-cyclopropyl-N-(3-(4-(cyclopropylamino)-8-fluoroquinazolin-6-yl)benzyl)-2-methylthiazole-4-carboxamide], the inhibition at 10 µM is reported as 90%.
Work on `Cc1cc(C(=O)N(Cc2cc(-c3ccc4ncnc(NC(C)(C)C)c4c3)ccc2F)C2CC2)n(C)n1` [Example 831, N-(5-(4-(tert-butylamino)quinazolin-6-yl)-2-fluorobenzyl)-N-cyclopropyl-1,3-dimethyl-1H-pyrazole-5-carboxamide] yielded an inhibition at 10 µM of 84%.
Molecule `O=C(C1CCCCC1)N(Cc1cc(-c2ccc3ncnc(NC4CC4)c3c2)ccn1)C1CC1` [Example 835, N-cyclopropyl-N-((4-(4-(cyclopropylamino)quinazolin-6-yl)pyridin-2-yl)methyl)cyclohexane carboxamide] has an inhibition at 10 µM of 58%.
